Assay [1] has as its system U2OS cells stably expressing GFP-LC3. As to the kind of experiment: Autophagy in cultured cells: GFP-LC3 puncta formation and LC3 lipidation with or without bafilomycin A1. The assay is classed as cell-based, human. Conditions: for autophagic flux (GFP-LC3 puncta formation, LC3 lipidation): cells kept in rich medium, presence and absence of BafA1; for statin-induced autophagy upon supplementation: 12 hours, Simvastatin and Mevastatin. How it is done: U2OS, HeLa or H4 cells stably expressing GFP-LC3 were seeded in 96-well imaging plates (BD Falcon, Sparks, USA) 24 h before stimulation. Cells were treated with the indicated agents for 4 h. […] Images were analyzed for the presence of GFP-LC3 puncta in the cytoplasm by means of the BD Attovision software (BD Imaging Systems). Cell surfaces were segmented and divided into cytoplasmic and nuclear regions according to manufacturer standard proceedings. RB 2×2 and Marr-Hildreth algorithms were used to recognize cytoplasmic GFP-LC3 positive dots. Statistical analyses were implemented on the R software (http://www.r-project.org/). For quantitative analyses of protein acetylation, cell surfaces were segmented into cytoplasm and nuclei regions, and staining intensity of each individual cell was measured for statistical analysis.
Membranes were then sliced in different parts according to the molecular weight of the protein of interest to allow simultaneous detection of different antigens within the same experiment. Unspecific binding sites were saturated by incubating membranes for 1 h in 0.05% Tween 20 (v:v in TBS) supplemented with 5% non-fat powdered milk (w:v in TBS), followed by the overnight incubation with primary antibodies specific for acetylated-lysine, LC3, phospho-AMPK (Thr172), AMPK, phospho-ribosomal protein S6 kinase (Thr421/Ser424), ribosomal protein S6 kinase, or STQM/p62 (Santa Cruz Biotechnology). Development was performed with appropriate horseradish peroxidase (HRP)-labeled secondary antibodies (Southern Biotech, Birmingham, USA) plus the SuperSignal West Pico chemoluminescent substrate (Thermo Scientific-Pierce). An anti-glyceraldehyde-3-phosphate dehydrogenase antibody (Chemicon International, Temecula, USA) was used to control equal loading of lanes.
For immunoblotting, protein extracts obtained by cellular lysis via RIPA buffer were run on 4-12% Bis-Tris acrylamide (Invitrogen) and electrotransferred to […] PVDF membranes (Biorad, USA). Unspecific binding sites were saturated by incubating membranes for 1 h in 0.05% Tween 20 (v:v in TBS) supplemented with 5% non-fat powdered milk (w:v in TBS), followed by an overnight incubation with primary antibodies specific for, LC3, phospho-AMPK (Thr172), AMPK, phosphor-ACC (Ser79), ACC, phospho-ribosomal protein S6 kinase (Thr421/Ser424), ribosomal protein S6 kinase, or SQSTM/p62 (Abnova). Membranes were opportunely cut in order to allow simultaneous detection of different molecular weight proteins. Development was performed with horseradish peroxidase (HRP)-labeled secondary antibodies (Southern Biotech, Birmingham, USA) plus the SuperSignal West Pico chemo luminescent substrate (Thermo Scientific-Pierce). An anti-glyceraldehyde-3-phosphate dehydrogenase antibody (Abcam) and anti-Actin antibody (Abcam) were used to ensure equal loading of lanes. Quantification was performed by densitometry by means of Image J software.
U2OS and H4 cells stably expressing GFP-LC3 were seeded in 96-well or 384-well imaging plates (BD Falcon, Sparks, USA). 24 h before stimulation, ells were treated with the indicated agents for 6 hours in absence of lysososomal ATPase inhibitors and for 3 hours in presence of Bafilomycin A1. […] Images were analyzed for the detection of GFP-LC3 puncta in the cytoplasm by means of the BD Attovision software (BD Imaging Systems. Cellular regions of interest, cytoplasm and nucleus, were defined and segmented according to standard proceedings. RB 2×2 and Marr-Hildreth algorithms were employed to allow the detection of GFP LC3 puncta. Statistical analyses were conducted using the R and Prism softwares (http://www.r-project.org/). For quantitative analyses of protein acetylation, cell surfaces were segmented intocytoplasmic and nucleic regions, and staining intensity of each individual cell was measured for statistical analysis.

The test system of another assay is AcCoA levels. In words: Targeted analysis of AcCoA levels in cultured cells (HPLC-MS). Conditions: cells kept in rich medium. The assay is classed as cell-based, human. How it is done:
Cells were trypsinized, pelleted at 1000 rpm for 4 min, washed with PBS and pelleted again at 1000 rpm for 4 min. Cells were then resuspended in 5 ml of ice-cold hyposmotic buffer and keep on ice for 5 min. Cells were broken to release nuclei using a pre-chilled Dounce homogenizer (20 strokes with a tight pestle) and then were then centrifuged at 228 g.
For in vitro experiments, cell pellets were resuspended in 300 μL of water with HEPES and EDTA (pH 7.4) at 1 mM containing internal standard acetylcoenzyme A (2-C13) at 1 mg/L, vortexed and heated at 100° C. for 1 min. Samples were incubated in liquid nitrogen for 1 min and thawed at room temperature two times. They were let for 1 h at −20° C. and centrifuged at 4° C. during 15 min at 13,000 g. Supernatants were transferred in HPLC vials and injected in HPLC/MS or kept at −80° C. until injection. For in vivo experiments, frozen tissues were placed in ice-cold homogenization tubes containing ceramic beads. Five μL of ice-cold methanol/water (80/20; v/v) were added for 1 mg of tissue. Tissues were homogenized two times for 20 s at 5,500 rpm using Precellys 24 tissue homogenator (Bertin Technologies, Montigny-le-Bretonneux, France). Samples were placed 10 min on ice. Next they were centrifuged at 4° C. during 15 min at 13,000 g. Supernatants were transferred in HPLC vials and injected in HPLC-MS system or kept at −80° C. until injection.
Targeted analyses were performed on Rapid Resolution Liquid Chromatography (RRLC) 1200SL system (Agilent Technologies, Waldbronn, Germany) coupled to a Triple Quadruple QQQ 6410 mass spectrometer (Agilent Technologies). RRLC analysis was done on 150×2.1 mm, 3.5 μm Eclipse Plus SB-Aq column with a pre-column 30 mm×2.1 mm 3.5 μm Eclipse plus (Agilent Technologies) with water containing 10 mmol/L of ammonium acetate and 0.01% of acetic acid in channel A and acetonitrile in channel B in gradient mode at a flow rate of 0.3 mL·min^−1: t=0 min 2% B; t=9 min 95% B; t=11 min 95% B; re-equilibration time of 3 min. Mass spectrometer analysis was done in positive electrospray ionization mode at +4 kV on the QQQ system operating in MRM mode. MRM transitions were optimized with standard of AcCoA and AcCoA A 2-C^13 with direct infusion. Two transitions were recorded for each compound; • AcCoA 810>303 CE (collision energy) 28V; fragmentor 180V • 810>428 CE 20V • AcCoA 2-C13 812>305 CE 28V; fragmentor 180V • 812>428 CE 24V […]

For the next assay, the system named is MCA205 tumor. In words: Growth of transplantable tumors with chemotherapy. Format: in vivo, mice. Conditions: for tumor growth, combined with MTX: immunocompetent wild type mice, agent given before and with mitoxanthrone. The procedure:
C57BL/6 mice (Charles River Laboratory, Lentilly, France) were bred and maintained according to both the FELASA and the Animal Experimental Ethics Committee Guidelines (Val de Marne, France). Mice were housed in a temperature-controlled environment with 12 h light/dark cycles and received food and water ad libitum. For HC-related experiments, mice were injected intraperitoneally with a single 100 mg/kg dose and 6 h later were sacrificed and tissues were immediately frozen in liquid nitrogen. For DCA- and DMKG-related experiments, mice were subjected to 24 h starvation and injected intraperitoneally each 8 h with a 100 mg/kg of either DCA or DMKG solution prepared in PBS. After 24 h of starvation, mice were sacrificed and tissues were immediately frozen in liquid nitrogen after extraction and homogenized two cycles for 20 s at 5,500 rpm using Precellys 24 tissue homogenator (Bertin Technologies, Montigny-le-Bretonneux, France) in a 20 mM Tris buffer (pH 7.4) containing 150 mM NaCl, 1% Triton X-100, 10 mM EDTA and Complete® protease inhibitor cocktail (Roche Applied Science). Tissue extracts were then centrifuged at 12,000 g at 4° C. and supernatants were collected. Protein concentration in the supernatants was evaluated by the bicinchoninic acid technique (BCA protein assay kit, Pierce Biotechnology, Rockford, Ill.). For hydroxycitrate-related weight-loss experiments, autophagy-deficient Atg4b^−/− mice were used. Atg4b^−/− mice have been previously described (Mariño et al., 2010). For HC-, spermidine-, and resveratrol-related experiments (tumour growth) mice were intraperitoneally injected with respectively 100 mg/kg, 50 mg/kg and 100 mg/kg doses at day 8 and day 9. At day 9, mice were intraperitoneally injected with 2 mg/kg single dose of Mitoxanthrone. For starvation related experiment (tumour growth) mice were treated as previously described (Fabrizio et. al., 2010).
Six weeks old female C57BL/6, Balb/c and nude athymic mice (Harlan Laboratory, Gannat, France) were bred and maintained according to both the FELASA and the Animal Experimental Inserm Ethics Committee Guidelines (project: 2012-69). Mice were housed in a temperature-controlled environment with 12 h light/dark cycles and received food and water ad libitum. For tumor growth experiments, procedures adopted are described as follows: 3×10^5 tumor cells were subcutaneously inoculated; when tumors became palpable (day −1 before chemotherapy), mice were first intraperitoneally injected with 100 mg/kg Potassium Hydroxycitrate, 10 mg/kg Acetylsalicylic Acid, 30 mg/kg SB204990, 30 mg/kg c646, 5 mg/kg Rapamycin, 25 mg/kg Resveratrol, 50 mg/kg Spermidine. At day 0, mice were intraperitoneally injected with the abovementioned compounds and with 5.17 mg/Kg Mitoxanthrone or 5 mg/kg Oxaliplatin. Tumor size was measured every two days. For starvation experiments, mice underwent 48 hour fasting followed by intreperitoneal injection of chemotherapeutics. For autophagy induction study, 6 hours after CRMs administration, mice were sacrificed and tissues were snap-frozen in liquid nitrogen after extraction and homogenized two cycles for 20 s at 5,500 rpm using Precellys 24 tissue homogenator (Bertin Technologies, Montigny-le-Bretonneux, France) in a 20 mM Tris buffer (pH 7.4) containing 150 mM NaCl, 1% Triton X-100, 10 mM EDTA and Complete® protease inhibitor cocktail (Roche Applied Science, Penzberg, Germany). Tissue extracts were then centrifuged at 12,000 g at 4° C. and supernatants were collected. Protein concentration in the supernatants was evaluated by the bicinchoninic acid technique (BCA protein assay kit, Pierce Biotechnology, Rockford, US.

As for `COc1ccc(-c2ccccc2)cc1NS(=O)(=O)c1cc(Cl)cc(Cl)c1O` [BMS-303141, 3 5-Dichloro-2-hydroxy-N-(4-methoxy[1,1′-biphenyl]-3-yl)-benzenesulfonamide], the figures for the “autophagic flux (GFP-LC3 puncta formation, LC3 lipidation)” value (from here on “autophagic flux”) in assay [1] and in assay [1] (listed as BMS303141) were “stimulated autophagic flux in cultured cancer cells” and “induce autophagic flux”, respectively.
Turning to `CC(O)(CCO)CC(=O)O` (centres unmarked) [mevalonate], the “statin-induced autophagy upon supplementation” value in assay [1] is reported as “only suppresses statin-induced autophagy”; in assay [1] (listed as Mevalonate), “reverts statins-induced”.
In the case of `C1CCC(C(CC2CCCCN2)C2CCCCC2)CC1` (centres unmarked) [PHX, perhexiline], in the assay on AcCoA levels, the AcCoA levels entry is “reduced AcCoA cellular levels”. Also, in assay [1], the “autophagic flux” value was “induced signs of autophagy”.
For `O=C(O)C[C@]1(O)C[C@H](CCCCCCc2ccc(Cl)cc2Cl)OC1=O` (relative stereo) [SB-204990, (3R,5S)-rel-5-[6-(2,4-Dichlorophenyl)hexyl]tetrahydro-3-hydroxy-2-oxo-3-furanacetic acid], the “autophagic flux” value is listed as “stimulated autophagic flux in cultured cancer cells” in assay [1] and “induce autophagic flux” in assay [1] (listed as SB204990). For the same compound, the “tumor growth, combined with MTX” value with MCA205 tumor is listed as “HC could be replaced”; in the assay on MCA205 tumor (listed as SB204990), “can enhance chemotherapy efficacy”. The “tumor growth, combined with MTX, immunodeficient mice” value with MCA205 tumor (nu/nu (nude athymic) mice) is reported as “failed”.
With `CC1COC(=O)C1` (centres unmarked) [3-methylbutyrolactone], the “autophagic flux” value in assay [1] was “marked increase in GFP-LC3 puncta”.
On the same count and under the same terms, the entry for `CCCCCCCCCCCCCCCc1cccc(O)c1C(=O)O` [anacardic acid, 6-pentadecylsalicylic acid] is “marked increase in GFP-LC3 puncta”.
On the same count and under the same terms, for `COc1cc(/C=C/C(=O)CC(=O)/C=C/c2ccc(O)c(OC)c2)ccc1O` [curcumin] the value was “marked increase in GFP-LC3 puncta”.

The values above are taken from patent US11040052B2, “Methods and pharmaceutical compositions for modulating autophagy in a subject in need thereof” (INSERM (INSTITUT NATIONAL DE LA SANTE ET DE LA RECHERCHE …, priority 2013, dated 2021).
